“And” between values parts separate entries of the source, which are not always exact repeats. Equal entries are not always repeated.
Key:
RavS^ΔTrM = biological target: T1, RavS^ΔTrM (Xanthomonas campestris pv. campestris, UniProt Q8P9A6); test: microscale thermophoresis (MST) binding; conditions: 20 nM fluorescein-labelled nucleotide, read-out: dissociation constant (Kd)
T1 sequence (Q8P9A6 47-697): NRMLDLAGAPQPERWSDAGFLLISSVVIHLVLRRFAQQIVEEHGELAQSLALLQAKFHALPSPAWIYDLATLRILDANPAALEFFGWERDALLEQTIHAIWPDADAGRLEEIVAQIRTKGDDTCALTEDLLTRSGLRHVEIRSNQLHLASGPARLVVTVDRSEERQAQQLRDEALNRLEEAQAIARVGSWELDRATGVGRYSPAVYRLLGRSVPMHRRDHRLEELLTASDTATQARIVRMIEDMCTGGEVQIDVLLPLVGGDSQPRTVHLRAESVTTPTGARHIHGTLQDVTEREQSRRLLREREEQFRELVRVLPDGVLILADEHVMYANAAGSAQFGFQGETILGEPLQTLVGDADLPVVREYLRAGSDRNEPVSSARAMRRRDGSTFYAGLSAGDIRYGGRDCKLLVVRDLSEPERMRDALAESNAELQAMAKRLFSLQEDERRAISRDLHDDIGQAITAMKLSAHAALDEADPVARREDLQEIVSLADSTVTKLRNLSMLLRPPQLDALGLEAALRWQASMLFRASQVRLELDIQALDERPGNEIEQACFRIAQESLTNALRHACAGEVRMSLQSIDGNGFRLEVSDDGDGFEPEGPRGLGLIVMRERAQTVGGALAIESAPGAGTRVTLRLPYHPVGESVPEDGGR
Method: (a) c-di-GMP enhances RavS-RavR phosphotransfer in vitro. A total of 5 μM RavS^ΔN was autophosphorylated for 15 min by the addition of 10 μCi [γ-^32P]ATP. A total of 15 μM RavR^ΔEAL or RavR^ΔEAL(D496A) was added and incubated for 30 min at 25°C. A total of 100 μM c-di-GMP was added if necessary. The reactions were terminated with 5× SDS loading buffer before autoradiography. The experiment was repeated three times. (b) Time course analyses of the impact of c-di-GMP on the velocity of RavS-RavR phosphotransfer. The autophosphorylation and phosphotransfer reactions were set as mentioned in (a). Various concentrations of c-di-GMP were added to the reactions and isotopic signals (band intensities) of RavS~P were measured after autoradiography. (c–d) c-di-GMP triggered an increase in RavS-RavR phosphotransfer in a dose-dependent manner. (c) Various concentrations of c-di-GMP (0, 5, 10, 15, 30, 50, 75 and 100 μM) were added to the RavS-RavR phosphotransfer reactions. (d) The phosphorylated level of RavS^ΔN~P was quantified by ImageJ and the EC50 value was estimated by Origin 8.5 software. In (b) and (d), the intensity of each data point is the average from three experimental repeats. (e) c-di-GMP triggered increase in RavS-RavR phosphotransfer is highly specific. […] The interaction between RavS^ΔTrM and various nucleotides, including fl-c-di-GMP, fl-cGMP and fl-c-di-AMP, were measured by microscale thermophoresis (MST). A total of 20 nM fluorescein-labelled nucleotides and increasing concentrations of proteins were incubated and measured by MST. The dissociation constant (Kd) was quantified to estimate the binding affinity. […]
The interaction between c-di-GMP nucleotides and various proteins was measured by using MST with a fluorescein-labelled c-di-GMP (2′-Fluo-AHC-c-di-GMP, abbreviated as fl-c-di-GMP; 2′-Fluo-AHC-c-di-AMP, fl-c-di-AMP; 2′-Fluo-AHC-cGMP, fl-cGMP; Biolog, Germany). These chemicals contain carboxyfluorescein that has excitation and emission wavelengths of 497 nm and 520 nm, respectively, which can be detected directly by a MST instrument. […]

RavS^ΔN = biological target: T2, RavS^ΔN (Xanthomonas campestris pv. campestris, UniProt Q8P9A6); test: in vitro RavS-RavR phosphotransfer assay (RavS~P level by autoradiography); format: biochemical
T2 sequence (Q8P9A6 352-697): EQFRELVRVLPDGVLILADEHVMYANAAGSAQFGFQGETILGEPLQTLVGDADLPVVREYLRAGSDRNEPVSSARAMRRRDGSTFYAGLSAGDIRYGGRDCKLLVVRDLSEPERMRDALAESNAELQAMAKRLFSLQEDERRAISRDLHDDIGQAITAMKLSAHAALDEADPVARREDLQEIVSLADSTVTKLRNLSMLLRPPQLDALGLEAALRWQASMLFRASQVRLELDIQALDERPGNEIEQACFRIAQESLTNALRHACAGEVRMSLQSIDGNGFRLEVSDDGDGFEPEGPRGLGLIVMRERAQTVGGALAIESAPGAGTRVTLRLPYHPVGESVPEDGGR
Method: (a) c-di-GMP enhances RavS-RavR phosphotransfer in vitro. A total of 5 μM RavS^ΔN was autophosphorylated for 15 min by the addition of 10 μCi [γ-^32P]ATP. A total of 15 μM RavR^ΔEAL or RavR^ΔEAL(D496A) was added and incubated for 30 min at 25°C. A total of 100 μM c-di-GMP was added if necessary. The reactions were terminated with 5× SDS loading buffer before autoradiography. The experiment was repeated three times. (b) Time course analyses of the impact of c-di-GMP on the velocity of RavS-RavR phosphotransfer. The autophosphorylation and phosphotransfer reactions were set as mentioned in (a). Various concentrations of c-di-GMP were added to the reactions and isotopic signals (band intensities) of RavS~P were measured after autoradiography. (c–d) c-di-GMP triggered an increase in RavS-RavR phosphotransfer in a dose-dependent manner. (c) Various concentrations of c-di-GMP (0, 5, 10, 15, 30, 50, 75 and 100 μM) were added to the RavS-RavR phosphotransfer reactions. (d) The phosphorylated level of RavS^ΔN~P was quantified by ImageJ and the EC50 value was estimated by Origin 8.5 software. In (b) and (d), the intensity of each data point is the average from three experimental repeats. (e) c-di-GMP triggered increase in RavS-RavR phosphotransfer is highly specific. […] (f) RavS specifically interacts with fl-c-di-GMP. The interaction between RavS^ΔTrM and various nucleotides, including fl-c-di-GMP, fl-cGMP and fl-c-di-AMP, were measured by microscale thermophoresis (MST). A total of 20 nM fluorescein-labelled nucleotides and increasing concentrations of proteins were incubated and measured by MST. The dissociation constant (Kd) was quantified to estimate the binding affinity. Each experiment was repeated three times.
An in vitro autophosphorylation assay was conducted as described in our previous study. Purified protein was incubated with 10 μM ATP containing 10 μCi [γ-^32P]ATP (PerkinElmer, USA) in the reaction buffer (50 mM Tris-HCl, pH 7.8, 25 mM NaCl, 25 mM KCl, 5 mM MgCl2, 2 mM DTT) for the indicated time at 28°C. If necessary, c-di-GMP was added to the mixture at the same time as ATP. For the phosphoryl transfer assay, purified RR protein or its derivative was added into the reaction mixture containing the phosphorylated HK. The autophosphorylation or phosphoryl transfer reaction was terminated by adding 5× SDS-PAGE loading buffer. Phosphorylated proteins were separated by 12% SDS-PAGE. After electrophoresis, gels were exposed to a phosphor screen (GE Healthcare) and the autoradiographic signals were detected by a Typhoon FLA7000 (GE Healthcare).

`Nc1nc2c(ncn2[C@@H]2O[C@@H]3COP(=O)(O)O[C@H]4[C@@H](OC(=O)NCCCCCCNC(=O)c5ccc6c(c5)C(=O)OC65c6ccc(O)cc6Oc6cc(O)ccc65)[C@H](n5cnc6c(=O)[nH]c(N)nc65)O[C@@H]4COP(=O)(O)O[C@H]3[C@H]2O)c(=O)[nH]1` [fl-c-di-GMP, 2′-Fluo-AHC-c-di-GMP] showed a Kd (RavS^ΔTrM) of 6.06 ± 0.92 µM.

With `Nc1nc2c(ncn2[C@@H]2O[C@@H]3COP(=O)(O)O[C@H]4[C@@H](O)[C@H](n5cnc6c(=O)[nH]c(N)nc65)O[C@@H]4COP(=O)(O)O[C@H]3[C@H]2O)c(=O)[nH]1` [c-di-GMP, Cyclic di-GMP] the EC50 (RavS^ΔN; 5 μM RavS^ΔN, 15 μM RavR^ΔEAL, 30 min at 25°C, RavS^ΔN~P level quantified by ImageJ, read-out: median effect concentration (EC50) on RavS-RavR phosphotransfer) was 15.6 µM and ~15.6 µM and the “T50: time that signal intensity of RavS~P decreased to half of the initiation stage” value (RavS^ΔN; 15 μM c-di-GMP present, without c-di-GMP 38.2 min) was 16.9 min.

Reference: article PMC6707612, “Cyclic-di-GMP binds to histidine kinase RavS to control RavS-RavR phosphotransfer and regulates the bacterial lifestyle transition between virulence and swimming” (PLoS Pathogens, 2019)
